Target: Metabotropic glutamate receptor 8 (Rattus norvegicus) (UniProt P70579)
Experiment: potentiation of glutamate response at mGlu8 – cell-based, rat receptor, GIRK thallium flux, confirmation (AID 743462)

Metabotropic glutamate receptor 8 (Rattus norvegicus), sequence (P70579 whole entry, looked up): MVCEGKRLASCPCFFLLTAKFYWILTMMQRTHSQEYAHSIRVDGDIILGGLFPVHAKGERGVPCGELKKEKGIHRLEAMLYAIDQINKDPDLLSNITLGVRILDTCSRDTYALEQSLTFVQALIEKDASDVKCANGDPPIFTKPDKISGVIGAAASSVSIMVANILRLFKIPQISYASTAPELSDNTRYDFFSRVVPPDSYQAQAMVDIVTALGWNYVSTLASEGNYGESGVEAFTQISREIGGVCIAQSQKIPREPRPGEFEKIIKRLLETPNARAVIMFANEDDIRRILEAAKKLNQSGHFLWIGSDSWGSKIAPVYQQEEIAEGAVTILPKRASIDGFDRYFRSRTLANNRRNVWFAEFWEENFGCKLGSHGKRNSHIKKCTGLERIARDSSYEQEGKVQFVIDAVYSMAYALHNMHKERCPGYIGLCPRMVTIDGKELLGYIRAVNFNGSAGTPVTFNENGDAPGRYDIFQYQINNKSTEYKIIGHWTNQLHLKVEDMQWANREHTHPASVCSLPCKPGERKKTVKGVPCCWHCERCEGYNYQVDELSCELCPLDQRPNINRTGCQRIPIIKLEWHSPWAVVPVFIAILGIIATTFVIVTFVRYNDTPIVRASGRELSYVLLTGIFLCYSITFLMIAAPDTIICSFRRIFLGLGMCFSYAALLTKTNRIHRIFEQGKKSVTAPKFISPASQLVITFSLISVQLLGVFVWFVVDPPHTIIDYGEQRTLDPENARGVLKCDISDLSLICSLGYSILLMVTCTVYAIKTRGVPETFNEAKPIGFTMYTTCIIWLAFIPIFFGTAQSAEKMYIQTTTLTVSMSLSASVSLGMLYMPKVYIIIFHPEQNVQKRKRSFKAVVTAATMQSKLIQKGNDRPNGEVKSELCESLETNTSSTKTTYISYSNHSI

EC50: 1800 nM
SMILES: COC(=O)c1ccc(-n2c(C)cc(C(=O)CSc3ccc(NC(C)=O)cc3)c2C)cc1
